In this assay the target is Protease (Human immunodeficiency virus 1, UniProt Q9YQ12). Kind of assay: Inhibition of HIV1 protease expressed in Escherichia coli incubated for 20 to 30 mins at room temperature using (Arg-Glu(EDANS)-Ser-Gln-Asn-Tyr-Pro-Ile-Val-Gln-Lys(DABCYL)-Arg) substrate by FRET method.
Chain of Protease (Q9YQ12 whole entry): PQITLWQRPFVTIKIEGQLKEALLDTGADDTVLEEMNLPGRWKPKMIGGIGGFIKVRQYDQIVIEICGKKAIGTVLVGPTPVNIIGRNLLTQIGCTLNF
With `COc1ccc(S(=O)(=O)N(CC(C)C)C[C@@H](O)[C@H](Cc2ccccc2)NC(=O)CN(CC(=O)N2CCOCC2)c2c(C)cccc2C)cc1`, the IC50 amounted to 0.015 µM.
The compound `COc1ccc(S(=O)(=O)N(CC(C)C)C[C@@H](O)[C@H](Cc2ccccc2)NC(=O)CN(CC(=O)N2CCOCC2)c2cccc(O)c2C)cc1` displayed an IC50 of 1.38 µM.
With `COc1ccc(S(=O)(=O)N(CC(C)C)C[C@@H](O)[C@H](Cc2ccccc2)NC(=O)CN(CC(=O)N(C)C)c2cccc(O)c2C)cc1` the figure was 0.54 µM.
With `COc1ccc(N(CC(=O)N[C@@H](Cc2ccccc2)[C@H](O)CN(CC(C)C)S(=O)(=O)c2ccc(OC)cc2)CC(=O)N2CCOCC2)cc1` the figure was 0.29 µM; with `COc1ccc(N(CC(=O)N[C@@H](Cc2ccccc2)[C@H](O)CN(CC(C)C)S(=O)(=O)c2ccc(OC)cc2)CC(=O)N(C)C)cc1`, 0.22 µM; with `COc1ccc(S(=O)(=O)N(CC(C)C)C[C@@H](O)[C@H](Cc2ccccc2)NC(=O)CN(CC(=O)N(C)C)c2c(C)cccc2C)cc1`, 0.18 µM.
In the case of `Cc1c(O)cccc1N(CC(=O)N[C@@H](Cc1ccccc1)[C@H](O)CN(CC(C)C)S(=O)(=O)c1ccc([N+](=O)[O-])cc1)CC(=O)N1CCOCC1` it was 6.67 µM.
Consider `Cc1c(O)cccc1N(CC(=O)N[C@@H](Cc1ccccc1)[C@H](O)CN(CC(C)C)S(=O)(=O)c1ccc([N+](=O)[O-])cc1)CC(=O)N(C)C`, for which the IC50 was determined as 0.61 µM.
With `COc1ccc(N(CC(=O)N[C@@H](Cc2ccccc2)[C@H](O)CN(CC(C)C)S(=O)(=O)c2ccc([N+](=O)[O-])cc2)CC(=O)N2CCOCC2)cc1` the figure was 1.02 µM.
With `COc1ccc(N(CC(=O)N[C@@H](Cc2ccccc2)[C@H](O)CN(CC(C)C)S(=O)(=O)c2ccc([N+](=O)[O-])cc2)CC(=O)N(C)C)cc1` the figure was 0.21 µM; with `Cc1cccc(C)c1N(CC(=O)N[C@@H](Cc1ccccc1)[C@H](O)CN(CC(C)C)S(=O)(=O)c1ccc([N+](=O)[O-])cc1)CC(=O)N1CCOCC1`, 0.073 µM.
In the case of `Cc1cccc(C)c1N(CC(=O)N[C@@H](Cc1ccccc1)[C@H](O)CN(CC(C)C)S(=O)(=O)c1ccc([N+](=O)[O-])cc1)CC(=O)N(C)C` it was 0.29 µM; in that of `Cc1c(O)cccc1N(CC(=O)N[C@@H](Cc1ccccc1)[C@H](O)CN(CC(C)C)S(=O)(=O)c1ccc(N)cc1)CC(=O)N1CCOCC1`, 2.73 µM; in that of `Cc1c(O)cccc1N(CC(=O)N[C@@H](Cc1ccccc1)[C@H](O)CN(CC(C)C)S(=O)(=O)c1ccc(N)cc1)CC(=O)N(C)C`, 0.59 µM.
`COc1ccc(N(CC(=O)N[C@@H](Cc2ccccc2)[C@H](O)CN(CC(C)C)S(=O)(=O)c2ccc(N)cc2)CC(=O)N2CCOCC2)cc1` had a half-maximal inhibitory concentration (IC50) of 1.36 µM.
With `COc1ccc(N(CC(=O)N[C@@H](Cc2ccccc2)[C@H](O)CN(CC(C)C)S(=O)(=O)c2ccc(N)cc2)CC(=O)N(C)C)cc1` the figure was 0.14 µM; with `Cc1cccc(C)c1N(CC(=O)N[C@@H](Cc1ccccc1)[C@H](O)CN(CC(C)C)S(=O)(=O)c1ccc(N)cc1)CC(=O)N1CCOCC1`, 0.064 µM.
In the case of `Cc1cccc(C)c1N(CC(=O)N[C@@H](Cc1ccccc1)[C@H](O)CN(CC(C)C)S(=O)(=O)c1ccc(N)cc1)CC(=O)N(C)C` it was 1.36 µM.
In the case of `Cc1c(O)cccc1N(CC(=O)N[C@@H](Cc1ccccc1)[C@H](O)CN(CC(C)C)S(=O)(=O)c1ccc(CO)cc1)CC(=O)N1CCOCC1`, the IC50 came to 1.21 µM.
In the case of `Cc1c(O)cccc1N(CC(=O)N[C@@H](Cc1ccccc1)[C@H](O)CN(CC(C)C)S(=O)(=O)c1ccc(CO)cc1)CC(=O)N(C)C` it was 0.15 µM; in that of `COc1ccc(N(CC(=O)N[C@@H](Cc2ccccc2)[C@H](O)CN(CC(C)C)S(=O)(=O)c2ccc(CO)cc2)CC(=O)N2CCOCC2)cc1`, 0.89 µM; in that of `COc1ccc(N(CC(=O)N[C@@H](Cc2ccccc2)[C@H](O)CN(CC(C)C)S(=O)(=O)c2ccc(CO)cc2)CC(=O)N(C)C)cc1`, 0.37 µM.
With `Cc1cccc(C)c1N(CC(=O)N[C@@H](Cc1ccccc1)[C@H](O)CN(CC(C)C)S(=O)(=O)c1ccc(CO)cc1)CC(=O)N1CCOCC1` the figure was 0.073 µM.
With `Cc1cccc(C)c1N(CC(=O)N[C@@H](Cc1ccccc1)[C@H](O)CN(CC(C)C)S(=O)(=O)c1ccc(CO)cc1)CC(=O)N(C)C` the figure was 0.29 µM; with `COc1ccc(S(=O)(=O)N(CC(C)C)C[C@H](O)[C@H](Cc2ccccc2)NC(=O)CN(CC(=O)N2CCOCC2)c2cccc(O)c2C)cc1`, over 20 µM; with `COc1ccc(S(=O)(=O)N(CC(C)C)C[C@H](O)[C@H](Cc2ccccc2)NC(=O)CN(CC(=O)N(C)C)c2cccc(O)c2C)cc1`, 5.78 µM.
`COc1ccc(N(CC(=O)N[C@@H](Cc2ccccc2)[C@@H](O)CN(CC(C)C)S(=O)(=O)c2ccc(OC)cc2)CC(=O)N2CCOCC2)cc1` had an IC50 of over 20 µM.
In the case of `COc1ccc(N(CC(=O)N[C@@H](Cc2ccccc2)[C@@H](O)CN(CC(C)C)S(=O)(=O)c2ccc(OC)cc2)CC(=O)N(C)C)cc1` it was over 20 µM; in that of `COc1ccc(S(=O)(=O)N(CC(C)C)C[C@H](O)[C@H](Cc2ccccc2)NC(=O)CN(CC(=O)N2CCOCC2)c2c(C)cccc2C)cc1`, 8.65 µM.
In the case of `COc1ccc(S(=O)(=O)N(CC(C)C)C[C@H](O)[C@H](Cc2ccccc2)NC(=O)CN(CC(=O)N(C)C)c2c(C)cccc2C)cc1` it was over 20 µM; in that of `Cc1c(O)cccc1N(CC(=O)N[C@@H](Cc1ccccc1)[C@@H](O)CN(CC(C)C)S(=O)(=O)c1ccc([N+](=O)[O-])cc1)CC(=O)N1CCOCC1`, over 20 µM.
For `Cc1c(O)cccc1N(CC(=O)N[C@@H](Cc1ccccc1)[C@@H](O)CN(CC(C)C)S(=O)(=O)c1ccc([N+](=O)[O-])cc1)CC(=O)N(C)C`, the half-maximal inhibitory concentration (IC50) turned out to be 7.41 µM.
Regarding `COc1ccc(N(CC(=O)N[C@@H](Cc2ccccc2)[C@@H](O)CN(CC(C)C)S(=O)(=O)c2ccc([N+](=O)[O-])cc2)CC(=O)N2CCOCC2)cc1`, the IC50 came out at 19.2 µM.
In the case of `COc1ccc(N(CC(=O)N[C@@H](Cc2ccccc2)[C@@H](O)CN(CC(C)C)S(=O)(=O)c2ccc([N+](=O)[O-])cc2)CC(=O)N(C)C)cc1` it was over 20 µM; in that of `Cc1cccc(C)c1N(CC(=O)N[C@@H](Cc1ccccc1)[C@@H](O)CN(CC(C)C)S(=O)(=O)c1ccc([N+](=O)[O-])cc1)CC(=O)N1CCOCC1`, 5.87 µM.
On to `Cc1cccc(C)c1N(CC(=O)N[C@@H](Cc1ccccc1)[C@@H](O)CN(CC(C)C)S(=O)(=O)c1ccc([N+](=O)[O-])cc1)CC(=O)N(C)C`, for which the IC50 was determined as 5.88 µM.
`Cc1c(O)cccc1N(CC(=O)N[C@@H](Cc1ccccc1)[C@@H](O)CN(CC(C)C)S(=O)(=O)c1ccc(N)cc1)CC(=O)N1CCOCC1`: the IC50 came to 16.1 µM.
In the case of `Cc1c(O)cccc1N(CC(=O)N[C@@H](Cc1ccccc1)[C@@H](O)CN(CC(C)C)S(=O)(=O)c1ccc(N)cc1)CC(=O)N(C)C` it was 5.92 µM; in that of `COc1ccc(N(CC(=O)N[C@@H](Cc2ccccc2)[C@@H](O)CN(CC(C)C)S(=O)(=O)c2ccc(N)cc2)CC(=O)N2CCOCC2)cc1`, 6.81 µM; in that of `COc1ccc(N(CC(=O)N[C@@H](Cc2ccccc2)[C@@H](O)CN(CC(C)C)S(=O)(=O)c2ccc(N)cc2)CC(=O)N(C)C)cc1`, 6.96 µM.
With `Cc1cccc(C)c1N(CC(=O)N[C@@H](Cc1ccccc1)[C@@H](O)CN(CC(C)C)S(=O)(=O)c1ccc(N)cc1)CC(=O)N1CCOCC1` the figure was 2.59 µM; with `Cc1cccc(C)c1N(CC(=O)N[C@@H](Cc1ccccc1)[C@@H](O)CN(CC(C)C)S(=O)(=O)c1ccc(N)cc1)CC(=O)N(C)C`, 0.49 µM.
In the case of `Cc1c(O)cccc1N(CC(=O)N[C@@H](Cc1ccccc1)[C@@H](O)CN(CC(C)C)S(=O)(=O)c1ccc(CO)cc1)CC(=O)N1CCOCC1` it was 6.12 µM; in that of `Cc1c(O)cccc1N(CC(=O)N[C@@H](Cc1ccccc1)[C@@H](O)CN(CC(C)C)S(=O)(=O)c1ccc(CO)cc1)CC(=O)N(C)C`, over 20 µM.
The compound `COc1ccc(N(CC(=O)N[C@@H](Cc2ccccc2)[C@@H](O)CN(CC(C)C)S(=O)(=O)c2ccc(CO)cc2)CC(=O)N2CCOCC2)cc1` registered an IC50 of over 20 µM.
With `COc1ccc(N(CC(=O)N[C@@H](Cc2ccccc2)[C@@H](O)CN(CC(C)C)S(=O)(=O)c2ccc(CO)cc2)CC(=O)N(C)C)cc1` the figure was 5.34 µM; with `Cc1cccc(C)c1N(CC(=O)N[C@@H](Cc1ccccc1)[C@@H](O)CN(CC(C)C)S(=O)(=O)c1ccc(CO)cc1)CC(=O)N1CCOCC1`, 8.94 µM.
With `Cc1cccc(C)c1N(CC(=O)N[C@@H](Cc1ccccc1)[C@@H](O)CN(CC(C)C)S(=O)(=O)c1ccc(CO)cc1)CC(=O)N(C)C` the figure was 17.3 µM.

A word on the IC50: it is the concentration needed to halve the response being measured.
